We go through four compounds from patent US20180243325A1, “METHOD FOR INHIBITING ABSORPTION OF AND/OR PROMOTING EXCRETION OF LIPIDS USING D-PSICOSE” (CJ CHEILJEDANG CORPORATION, priority 2015, published 2018).

What all share (format): in vivo, C57BL/6J mice
For experiment [1], the system named is ABCG5 (ATP-binding cassette sub-family G member5, 27409). Kind of experiment: Small intestine mRNA expression, real-time quantitative PCR: ABCG5. The following applies: high-fat diet-fed obese mice. The procedure:
(§1) First, 4-week-old male C57BL/6J mice (60 total) were purchased from Jackson Laboratory. The animals were acclimated to the vivarium in a thermo-hygrostat (20-23° C., 45-65%) under a 12 h light/dark cycle and fed a pelletized commercial non-purified diet for 1 week after arrival. […] Their feed intakes and body weights were measured daily and biweekly, respectively. The organ weights and the adipose tissue weights of the mice were measured after sacrificing the animals.
(§2) Samples were prepared and analyzed as previously described. Specifically, total RNA was synthesized into cDNA using a QuantiTect Reverse Transcription kit (QIAGEN Gmb1h, Hilden, Germany). RNA expression was quantified with real-time quantitative PCR using a QuantiTect SYBR Green PCR kit (QIAGEN Gmb1h, Hilden, Germany). […] Fluorescence signals were monitored every cycle and the resulting threshold cycles (Ct) were analyzed. mRNA expression in each experimental group was quantified using a CFX96 Real time system (Bio-rad, USA).

The test system of another experiment is Fatty acid β-oxidation. Description: Fatty acid β-oxidation activity in adipose tissue. Conditions: FIG. 5A, epididymal white adipose tissue, HFD+5% w/w in diet, 16 weeks. The procedure: First, 4-week-old male C57BL/6J mice (60 total) were purchased from Jackson Laboratory. The animals were acclimated to the vivarium in a thermo-hygrostat (20-23° C., 45-65%) under a 12 h light/dark cycle and fed a pelletized commercial non-purified diet for 1 week after arrival. The mice were then randomly divided into 6 groups (n=10) and fed the respective experimental diets for 16 weeks: normal diet group (ND, American Institute of Nutrition (AIN)-76 semi-synthetic diet), high-fat diet group (HFD, 20% fat+1% cholesterol based on AIN-76 diet), PSI group (HFD+5% D-psicose, w/w, Sigma Chemical Company), ERY group (HFD+5% erythritol, w/w, Sigma Chemical Company), GLU group (HFD+5% D-glucose, w/w, Sigma Chemical Company), and FRU group (HFD+5% D-fructose, w/w, Sigma Chemical Company). All high-fat diet-fed groups were allowed to ingest the same calories by pair feeding based on the PSI group. The mice had ad libitum access to distilled water during the experimental period. Their feed intakes and body weights were measured daily and biweekly, respectively. The organ weights and the adipose tissue weights of the mice were measured after sacrificing the animals. Samples were prepared and analyzed according to the method developed by Hulcher and Oleson. Specifically, the activity of fatty acid synthase (FAS) as a lipid regulating enzyme of epididymal white adipose tissue was measured by spectrophotometric assay according to the method described by Nepokroeff et al. Each sample was mixed with 100 μl of cytoplasmic fraction and the mixture was allowed to react at 30° C. for 2 min. A reduction in absorbance at 340 nm was measured. FAS activity units were expressed as nanomoles (nmol) of NADPH oxidized for 1 min per mg of cytoplasmic fraction. Fatty acid β-oxidation activity was measured by monitoring the reduction of NAD^+ to NADH in the presence of palmitoyl-CoA, as described by Lazarow. β-oxidation activity units were expressed as nanomoles (nmol) of NADH produced for 1 min per mg of mitochondrial protein.

Experiment [2] concerns ABCG8 (ATP-binding cassette sub-family G member8, 67470). Kind of experiment: Small intestine mRNA expression, real-time quantitative PCR: ABCG8. The following applies: high-fat diet-fed obese mice. How it is done:
as §1, §2

For `O=C(CO)[C@H](O)[C@H](O)[C@H](O)CO` [PSI, D-psicose], the “mRNA expression of ABCGS (gene involved in lipid excretion)” value in experiment [1] was “reduces mRNA expression”. The “fatty acid β-oxidation activity in adipose tissue” value (“fatty acid β-oxidation activity” below) in the experiment with Fatty acid β-oxidation is recorded as “increased significantly compared to those in other high-fat diet groups”. The “mRNA expression of ABCG8 (gene involved in lipid excretion)” value in experiment [2] is on record as “reduces mRNA expression”.

Turning to `OC[C@@H](O)[C@@H](O)CO` [ERY, erythritol], the “fatty acid β-oxidation activity” value in the experiment on Fatty acid β-oxidation was “decreased significantly compared to those in the ND group”.

Regarding `O=C[C@H](O)[C@@H](O)[C@H](O)[C@H](O)CO` [GLU, D-glucose], the “fatty acid β-oxidation activity” value with Fatty acid β-oxidation was “decreased significantly compared to those in the ND group”.

As for `O=C(CO)[C@@H](O)[C@H](O)[C@H](O)CO` [FRU, D-fructose], in the experiment with Fatty acid β-oxidation, the “fatty acid β-oxidation activity” value is “decreased significantly compared to those in the ND group”.
